# Assay results from patent US20220378923A1, “BET DEGRADER” (KYOWA KIRIN CO., LTD., priority 2019, published 2022).
# pIC50: −log10 of the molar value. Read-outs that look alike come from different tables or passages of the source.
# Legend:
# SU-DHL-4 cells = experiment: Inhibitory effect on cell viability in SU-DHL-4 cell line (Test Example 1); assay type: cell-based, human; conditions: 72 hours; for pIC50: SU-DHL-4 (wild type) cells, calculated using the measurement results of test example 1, read-out: SU-DHL-4 WT IC50; for IC90: SU-DHL-4 cells, Cell Counting Kit-8, concentration showing 90% inhibition of cell viability, read-out: SU-DHL-4 Cell Viability Inhibition Rate IC90
# Procedure, shortened: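 SU-DHL-4 cells were grown at 37° C. under 5% CO2 in RPMI1640 with 10 vol % heat-inactivated FBS plus penicillin/streptomycin, seeded and precultured for 18 to 25 hours, then exposed to test compound at 0.1 vol % DMSO for 72 hours. Viability was read with Cell Counting Kit-8 by absorbance at 450 nm.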
# DCAF16 KO SU-DHL-4 cells = experiment: Inhibitory effect on cell viability using SU-DHL-4 DCAF16 knock out (KO) cell line (Test Example 6); assay type: cell-based, human; conditions: for Activity Attenuation Ratio: (SU-DHL-4 DCAF16 KO IC50)/(SU-DHL-4 WT IC50); for pIC50: DCAF16 KO SU-DHL-4 cells, 72 hours, Cell Counting Kit-8, 50% inhibition of cell viability
# Method: The human DLBCL cell line SU-DHL-4 was purchased from DSMZ. SU-DHL-4 was passaged using RPMI1640 medium containing 10 vol % FBS. After the Cas9 gene was introduced, the cells were cultured in the above medium containing 0.01 mg/mL blasticidin (InvivoGen, Cat No. ant-bl-1). After introduction of sgRNA, the cells were cultured in the above medium containing 0.0001 mg/mL puromycin dihydrochloride (SIGMA, Cat No. P9020-10 ML). The culture conditions were 37° C. and 5% CO2.
# Edit-R Lentiviral hEF1α-Blast-Cas9 Nuclease Particles (Cat No. VCAS10126) was used as a lentivirus for expressing Cas9 in human cell lines. Three types of Edit-R Human DCAF16 Lentiviral sgRNA (Cat No. VSGH10142-246568260; DNA target sequence […] (SEQ ID NO: 1), Cat No. VSGH10142-246568262; DNA target sequence […] (SEQ ID NO: 2) and Cat No. VSGH10142-246568263; DNA target sequence […] (SEQ ID NO: 3)) were used as lentiviruses for introducing DCAF16 sgRNA. As a control, Edit-R Lentiviral sgRNA Non-targeting Control #1 (Cat No. VSGC10215) was used. All lentiviruses were purchased from Dharmacon and stored at −80° C. until use.
# SU-DHL-4 was suspended at 4×10^5 cells/mL in RPMI 1640 without FBS, 0.25 mL of the suspension was added to a 24-well plate, and the cells were cultured overnight. The next day, 0.003 mL of virus particles of Edit-R Lentiviral hEF1α-Blast-Cas9 Nuclease Particles was added. After culturing in a CO2 incubator for 4 hours, RPMI 1640 containing 0.75 mL of 10 vol % FBS was added. After culturing in a CO2 incubator for about 48 hours, the medium was replaced with RPMI1640 containing 10 vol % FBS, and the cells were cultured in a CO2 incubator. Four days after infection, the medium was replaced with a medium containing 0.01 mg/mL blasticidin (InvivoGen, Cat No. ant-bl-1). Then, the cells were passaged once every 2 to 3 days and thus twice in total (that is, cultured for 1 week) to obtain SU-DHL-4/Cas9, which is a Cas9-introduced SU-DHL-4 cell line.
# (6) sgRNA infection SU-DHL-4/Cas9 was suspended at 4×10^5 cells/mL in RPMI 1640 without FBS, 0.25 mL of the suspension was added to a 24-well plate, and the cells were cultured overnight. The next day, a total of 4 types of sgRNA virus particles, 1 type of Control and 3 types targeting DCAF16 were added to the respective wells by 0.03 mL. After culturing in a CO2 incubator for 5 hours, RPMI 1640 containing 0.75 mL of 10 vol % FBS was added.
# After culturing in a CO2 incubator for about 48 hours, the medium was replaced with RPMI1640 containing 10 vol % FBS, and the cells were cultured in a CO2 incubator. Four days after infection, the medium was replaced with a medium supplemented with 0.01 mg/mL puromycin dihydrochloride (SIGMA, Cat No. P9020-10 ML). Then, the cells were passaged once or twice a week for 2 weeks, and a cell stock was prepared using CELLBANKER I plus (Takara Bio, Cat No. CB-021). Cell line stock was stored at −80° C. Using Edit-R Lentiviral sgRNA Non-targeting Control #1, the Negative Control sequence was introduced into the SU-DHL-4 cell line, which was referred to as SU-DHL-4 NC strain, and using Edit-R Human DCAF16 Lentiviral sgRNA, […] sequence (SEQ ID NO: 1) was introduced into the SU-DHL-4 cell line, which was referred to as SU-DHL-4 DCAF16 KO1 strain, […] sequence (SEQ ID NO: 2) was introduced into the SU-DHL-4 cell line, which was referred to as SU-DHL-4 DCAF16 KO2 strain, and […] sequence (SEQ ID NO: 3) was introduced into the SU-DHL-4 cell line, which was referred to as SU-DHL-4 DCAF16 KO 3 strain.
# The cultured DCAF16 KO SU-DHL-4 cells were seeded at 2000 cells/well in a transparent 384-well plate (Code No. 781182, Greiner bio-one). After seeding, the cells were pre-cultured at 37° C. in a carbon dioxide gas incubator for 18 to 25 hours. […]
pIC50 (SU-DHL-4 cells; Homo sapiens),pIC50 (DCAF16 KO SU-DHL-4 cells; Homo sapiens),IC90 (SU-DHL-4 cells; Homo sapiens) [nM],SMILES,pIC50 (SU-DHL-4 cells),IC90 (SU-DHL-4 cells) [nM],Activity Attenuation Ratio (DCAF16 KO SU-DHL-4 cells),pIC50 (DCAF16 KO SU-DHL-4 cells)
–,–,–,"CCC(=O)N1c2ccccc2[C@H](N[C@H]2CC[C@H](NC(=O)C#CCNC(=O)[C@H]3CC[C@H](N[C@@H]4C[C@H](C)N(C(=O)CC)c5ccccc54)CC3)CC2)C[C@@H]1C (relative stereo) [Compound 9d, (1R,4R)-4-(((2S*,4R*)-2-Methyl-1-propionyl-1,2,3,4-tetrahydroquinolin-4-yl)amino)-N-(4-(((1R,4R)-4-(((2S,4R)-2-methyl-1-propionyl-1,2,3,4-tetrahydroquinolin-4-yl)amino)cyclohexyl)amino)-4-oxobut-2-yn-1-yl)cyclohexane-1-carboxamide]",9.12,0.93,348,6.58
9.47,6.74,–,"CCC(=O)N1c2ccccc2[C@H](Nc2ccc(-n3cc(CNC(=O)N4CCC(N[C@@H]5C[C@H](C)N(C(=O)CC)c6ccccc65)CC4)nn3)cc2)C[C@@H]1C (relative stereo) [Compound 10b, 4-(((2S*,4R*)-2-Methyl-1-propionyl-1,2,3,4-tetrahydroquinolin-4-yl)amino)-N-((1-(4-(((2S,4R)-2-methyl-1-propionyl-1,2,3,4-tetrahydroquinolin-4-yl)amino)phenyl)-1H-1,2,3-triazol-4-yl)methyl)piperidine-1-carboxamide]",–,–,524,–
9.04,6.85,–,"CCC(=O)N1c2ccccc2[C@H](NCc2ccc(C(=O)N3CC(C(=O)Nc4ccc(N[C@@H]5C[C@H](C)N(C(=O)CC)c6ccccc65)cc4)C3)cc2)C[C@@H]1C (relative stereo) [Compound 10g, 1-(4-((((2S*,4R*)-2-Methyl-1-propionyl-1,2,3,4-tetrahydroquinolin-4-yl)amino)methyl)benzoyl)-N-(4-(((2S,4R)-2-methyl-1-propionyl-1,2,3,4-tetrahydroquinolin-4-yl)amino)phenyl)azetidine-3-carboxamide]",–,–,154,–
–,–,–,"CCC(=O)N1c2ccccc2[C@H](NCCCCC(=O)NCc2cn(-c3ccc(N[C@@H]4C[C@H](C)N(C(=O)CC)c5ccccc54)cc3)nn2)C[C@@H]1C (relative stereo) [Compound 12f, 5-(((2S*,4R*)-2-Methyl-1-propionyl-1,2,3,4-tetrahydroquinolin-4-yl)amino)-N-((1-(4-(((2S,4R)-2-methyl-1-propionyl-1,2,3,4-tetrahydroquinolin-4-yl)amino)phenyl)-1H-1,2,3-triazol-4-yl)methyl)pentane amide]",9.62,0.42,>40284,< 5.00
8.51,6.23,–,"CCC(=O)N1c2ccccc2[C@H](NCCCCCCCC(=O)Nc2ccc(N[C@@H]3C[C@H](C)N(C(=O)CC)c4ccccc43)cc2)C[C@@H]1C (relative stereo) [Compound 12h, 8-(((2S*,4R*)-2-Methyl-1-propionyl-1,2,3,4-tetrahydroquinolin-4-yl)amino)-N-(4-(((2S,4R)-2-methyl-1-propionyl-1,2,3,4-tetrahydroquinolin-4-yl)amino)phenyl)octanamide]",–,–,191,–
9.11,6.28,2.18,"CCC(=O)N1c2ccccc2[C@H](NCC23CCC(C(=O)N4CC(C(=O)Nc5ccc(N[C@@H]6C[C@H](C)N(C(=O)CC)c7ccccc76)cc5)C4)(CC2)CC3)C[C@@H]1C (relative stereo) [Compound 17o, 1-(4-((((2S,4R)-2-Methyl-1-propionyl-1,2,3,4-tetrahydroquinolin-4-yl)amino)methyl)bicyclo[2.2.2]octane-1-carbonyl)-N-(4-(((2S*,4R*)-2-methyl-1-propionyl-1,2,3,4-tetrahydroquinolin-4-yl)amino)phenyl)azetidine-3-carboxamide]",–,–,670,–
9.19,7.44,–,"Cc1sc2c(c1C)C(c1ccc(C(=O)NCCCNC(=O)c3ccc(C4=N[C@@H](CC(=O)OC(C)(C)C)c5nnc(C)n5-c5sc(C)c(C)c54)cc3)cc1)=N[C@@H](CC(=O)OC(C)(C)C)c1nnc(C)n1-2 [Compound 1b, Di-tert-butyl 2,2′-[(6S,6′S)-({[propane-1,3-diylbis(azanediyl)]bis(carbonyl)}bis(4,1-phenylene))bis(2,3,9-trimethyl-6H-thieno[3,2-f][1,2,4]triazolo[4,3-a][1,4]diazepine-4,6-diyl)]diacetate]",–,–,56,–
9.66,8.13,–,"CCC(=O)N1c2ccccc2[C@H](Nc2ccc(C(=O)N3CC4CC3CN4C(=O)c3ccc(N[C@@H]4C[C@H](C)N(C(=O)CC)c5ccccc54)cc3)cc2)C[C@@H]1C [Compound 1k, 1,1′-{(2S,2'S,4R,4′R)-{[(2,5-Diazabicyclo[2.2.1]heptane-2,5-dicarbonyl)bis(4,1-phenylene)]bis(azanediyl)}bis[2-methyl-3,4-dihydroquinoline-4,1(2H)-diyl]}bis(propan-1-one)]",–,–,34,–
10.52,7.00,–,"CCC(=O)N1c2ccccc2[C@H](Nc2ccc(C(=O)NCC(=O)CNC(=O)c3ccc(N[C@@H]4C[C@H](C)N(C(=O)CC)c5ccccc54)cc3)cc2)C[C@@H]1C [Compound 1l, N,N′-(2-Oxopropane-1,3-diyl)bis(4-{[(2S,4R)-2-methyl-1-propionyl-1,2,3,4-tetrahydroquinolin-4-yl]amino}benzamide)]",–,–,3357,–
10.60,8.18,–,"CCC(=O)N1c2ccccc2[C@H](Nc2ccc(C(=O)NCc3cn(-c4ccc(N[C@@H]5C[C@H](C)N(C(=O)CC)c6ccccc65)cc4)nn3)cc2)C[C@@H]1C [Compound 3a, 4-{[(2S,4R)-2-Methyl-1-propionyl-1,2,3,4-tetrahydroquinolin-4-yl]amino}-N-{[1-(4-{[(2S,4R)-2-methyl-1-propionyl-1,2,3,4-tetrahydroquinolin-4-yl]amino}phenyl)-1H-1,2,3-triazol-4-yl]methyl}benzamide]",–,–,263,–
